# Measurements taken from patent US7438926B2, “Methods for inhibiting decrease in transdermal drug flux by inhibition of pathway closure” (Alza Corporation, priority 2000, dated 2008).
# Several values for one entry are separate records, joined by “and”; a condition that tells them apart may be missing. Identical values can stand only once. Counter-ions that a name gives are not always drawn. Ends that are not written are not given here.
# System: pathway closure
# Experiment: Inhibition of pathway closure by chemicals, methylene blue dye score after microprotrusion array pretreatment
# Assay type: in vivo, hairless guinea pigs
# Protocol: Inhibition of pathway collapse by chemical agents was studied following pretreatment of the skin with a microprotrusion array and application of a formulation containing the agent for 24 h. Quantitation was performed by evaluation of dye impregnation of the pathways.
# Application of the microprotrusion array was performed with an impact applicator. […] Following application, the stretching tension was released. […] The guinea pig received a second system containing a different formulation on the opposite site. Twenty four hours after application, three systems from each group were removed and residual formulation washed from the skin. The skin was stained with a 1% methylene blue solution. Excess dye was thoroughly removed with 70% isopropyl alcohol pads and a picture of the site was taken. Pictures were scored on a 0 to 5 scale, 5 being the dye uptake obtained immediately following microprotrusion array application and 0 being the dye uptake obtained after 24 h contact with a control formulation. A score of 0.5 or greater was considered significant. Various osmotic agents, anticoagulants, antiinflammatory agents, gelling agents as well as gels of different pH and various additives were tested (Table II).
# [1] = additive concentration 23%, 24 h, scale 0 to 5, 0.5 or greater significant
# [2] = additive concentration 10%, 24 h, scale 0 to 5, 0.5 or greater significant
# [3] = additive concentration 1%, 24 h, scale 0 to 5, 0.5 or greater significant
# [4] = additive concentration 30%, 24 h, scale 0 to 5, 0.5 or greater significant
# [5] = additive concentration 50%, 24 h, scale 0 to 5, 0.5 or greater significant
# [6] = 24 h, methylene blue evaluation, Table II
# [7] = additive concentration 11%, 24 h, scale 0 to 5, 0.5 or greater significant
# [8] = additive concentration 0.05%, 24 h, scale 0 to 5, 0.5 or greater significant
# [9] = additive concentration 2%, 24 h, scale 0 to 5, 0.5 or greater significant
# [10] = additive concentration 12%, 24 h, scale 0 to 5, 0.5 or greater significant
# [11] = additive concentration 5%, 24 h, scale 0 to 5, 0.5 or greater significant
# [12] = additive concentration 13%, 24 h, scale 0 to 5, 0.5 or greater significant
compound,measurement,setting,value
O=C[C@@H](O)[C@H](O)[C@@H](O)[C@@H](O)CO [L-Glucose],Score (methylene blue),[1],3.5 ± 0.3
O[C@H]1[C@H](O)[C@@H](O)[C@H](O)[C@@H](O)[C@H]1O [Inositol],Score (methylene blue),[2],1.5 ± 0.3
O=C(O)CC(O)(CC(=O)O)C(=O)O [Citric acid disodium salt],Score (methylene blue),"additive concentration 0.5%, 24 h, scale 0 to 5, 0.5 or greater significant",0 ± 0
same,Score (methylene blue),[3],0.3 ± 0.2
same,Score (methylene blue),"additive concentration 3%, 24 h, scale 0 to 5, 0.5 or greater significant",1.2 ± 0.2
OC[C@@H](O)[C@@H](O)CO [Erythritol],Score (methylene blue),[4],3.3 ± 0.4
"C=C1[C@@H](C)[C@H]2[C@H](Cc3ccccc3)NC(=O)[C@]23[C@H](OC(C)=O)/C=C/[C@@](C)(O)C(=O)[C@@H](C)C/C=C/[C@H]3[C@@H]1O [Cytochalasin D, reference compound]",Score (methylene blue),"additive concentration 0.025%, 24 h, scale 0 to 5, 0.5 or greater significant",1.5 ± 0.0
OCCOCCOCCO [Triethylene glycol],Score (methylene blue),[2],1.3 ± 0.3
same,Score (methylene blue),[4],3.3 ± 0.3
same,Score (methylene blue),[5],3.7 ± 0.3
OC[C@@H](O)[C@@H](O)[C@@H](O)CO [Adonitol],Effect on pathway closure (in words),[6],most effective agents
same,Score (methylene blue),[7],3.0 ± 0.3
same,Score (methylene blue),[1],3.5 ± 0.3
same,Score (methylene blue),[5],3.7 ± 0.3
O=C(O)c1ccccc1O [salicylic acid],Effect on pathway closure (in words),[6],had an effect on pathway closure
Laminin,Score (methylene blue),[8],1.0 ± 0.3
"C[C@H]1C[C@H]2[C@@H]3CCC4=CC(=O)C=C[C@]4(C)[C@@]3(F)[C@@H](O)C[C@]2(C)[C@@]1(O)C(=O)COP(=O)([O-])[O-].[Na+].[Na+] [Betamethasone phospate Na, reference compound]",Effect on pathway closure (in words),[6],significant effect
same,Score (methylene blue),[9],2.3 ± 0.4
CC(O)CO (stereo not drawn) [Propylene glycol],Score (methylene blue),[4],0.7 ± 0.2
same,Score (methylene blue),[5],1.3 ± 0.1
same,Score (methylene blue),"additive concentration 70%, 24 h, scale 0 to 5, 0.5 or greater significant",1.0 ± 0.6
OC[C@H]1O[C@H](O[C@H]2O[C@H](CO)[C@@H](O)[C@H](O)[C@H]2O)[C@H](O)[C@@H](O)[C@@H]1O [Trehalose],Score (methylene blue),[5],1.5 ± 0.0
Heparin [reference compound],Score (methylene blue),[9],0.3 ± 0.2
CCCCCCCCCCCCOS(=O)(=O)[O-].[Na+] [Sodium dodecyl sulfate],Score (methylene blue),"additive concentration 0.01%, 24 h, scale 0 to 5, 0.5 or greater significant",0 ± 0
OCCCCO [1-4 Butane diol],Score (methylene blue),"guinea pig, in vivo",3.0 ± 0.3
"O=C(O)CO [Glycolic acid, sodium salt]",Score (methylene blue),"additive concentration 6%, 24 h, scale 0 to 5, 0.5 or greater significant",1.7 ± 0.1
same,Score (methylene blue),[10],2.6 ± 0.1
same,Score (methylene blue),"additive concentration 24%, 24 h, scale 0 to 5, 0.5 or greater significant",2.7 ± 0.1
O=C(O)CN(CCN(CC(=O)O)CC(=O)O)CC(=O)O [EDTA],Effect on pathway closure (in words),"guinea pig, in vivo",most effective agents in preventing pathway closure
same,Score (methylene blue),"guinea pig, in vivo",1.3 ± 0.2
OC[C@@H](O)[C@@H](O)[C@H](O)[C@@H](O)CO [Sorbitol],Effect on pathway closure (in words),[6],most effective agents
same,Score (methylene blue),[7],1.3 ± 0.6
same,Score (methylene blue),[1],3.3 ± 0.3
same,Score (methylene blue),[5],3.3 ± 0.3
SIKVAV [reference compound],Score (methylene blue),[8],0.5 ± 0.5
[Ca+2].[Cl-].[Cl-] [Calcium chloride],Score (methylene blue),"guinea pig, in vivo",0.7 ± 0.4
C[S+](C)[O-] [Dimethylsulfoxide],Score (methylene blue),[2],1.0 ± 0.0
Cl.NC(CO)(CO)CO [Tromethamine hydrochloride],Effect on pathway closure (in words),"guinea pig, in vivo",most effective agents
same,Score (methylene blue),"guinea pig, in vivo, hydrochloride",3.7 ± 0.3 and 2.3 ± 0.3
"O=C(O)C(O)C(O)C(=O)O (stereo not drawn) [Tartaric acid, disodium salt]",Score (methylene blue),[10],1.5 ± 0.4
PEG-350,Score (methylene blue),[5],0 ± 0
NCC(=O)O [Glycine],Score (methylene blue),"additive concentration 9%, 24 h, scale 0 to 5, 0.5 or greater significant",1.8 ± 0.3
O=C[C@H](O)[C@@H](O)[C@H](O)[C@H](O)C(=O)[O-].[Na+] [Glucuronic acid sodium salt],Effect on pathway closure (in words),[6],most effective agents
same,Score (methylene blue),[11],1.0 ± 0.0
same,Score (methylene blue),[2],3.5 ± 0.3
same,Score (methylene blue),[12],3.0 ± 0.3
CC(=O)O.N [Ammonium acetate],Score (methylene blue),"guinea pig, in vivo",2.1 ± 0.1
Insulin [reference compound],Score (methylene blue),"additive concentration 3 mM, 24 h, scale 0 to 5, 0.5 or greater significant",0.2 ± 0.2
CCC(O)CO (stereo not drawn) [1-2 Butane diol],Score (methylene blue),"guinea pig, in vivo",2.0 ± 0.8
Arg-Gly-Asp [reference compound],Score (methylene blue),[3],0.7 ± 0.4
O=C[C@H](O)[C@H](O)[C@H](O)CO [Ribose],Score (methylene blue),[5],2.3 ± 0.3
PEG-4,Score (methylene blue),[5],2 ± 0.6
OCCOCCO [Diethylene glycol],Effect on pathway closure (in words),"guinea pig, in vivo",most effective agents
same,Score (methylene blue),"guinea pig, in vivo",3.2 ± 0.2
CC(O)CCO (stereo not drawn) [1-3 Butane diol],Score (methylene blue),"guinea pig, in vivo",0.2 ± 0.2
CC(C)O [Isopropyl alcohol],Score (methylene blue),[4],0.2 ± 0.2
Cl.N[C@H]1C(O)O[C@H](CO)[C@H](O)[C@@H]1O (stereo partly drawn) [Galactosamine hydrochloride],Score (methylene blue),[5],2.8 ± 0.3
PEG-12,Score (methylene blue),[5],0 ± 0
O=C([O-])[C@H](O)[C@@H](O)[C@H](O)[C@H](O)CO.[Na+] [Gluconic acid sodium salt],Score (methylene blue),[2],2.7 ± 0.2
same,Score (methylene blue),[12],3.3 ± 0.0
same,Score (methylene blue),[4],4.5 ± 0.0
CC(=O)[O-].[Na+] [Sodium acetate],Score (methylene blue),"guinea pig, in vivo",1.7 ± 0.1
"CC(C(=O)O)c1cccc(C(=O)c2ccccc2)c1 (stereo not drawn) [Ketoprofen Na, reference compound]",Effect on pathway closure (in words),[6],significant effect
same,Score (methylene blue),[9],2.3 ± 0.6
OC[C@H]1O[C@@](CO)(O[C@H]2O[C@H](CO)[C@@H](O)[C@H](O)[C@H]2O)[C@@H](O)[C@@H]1O [Sucrose],Score (methylene blue),[5],1.7 ± 0.6
CC(O)C(C)O (stereo not drawn) [2-3 Butane diol],Score (methylene blue),"guinea pig, in vivo",2.2 ± 0.2
"O=C(O)CC(O)C(=O)O (stereo not drawn) [Malic acid, disodium salt]",Score (methylene blue),[7],2.1 ± 0.3
CCO [Ethanol],Score (methylene blue),"additive concentration 0% (4.3 M), 24 h, scale 0 to 5, 0.5 or greater significant",0 ± 0
Tyr-Ile-Gly-Ser-Arg-NH2 (YIGSR-NH2) [reference compound],Score (methylene blue),[8],0.3 ± 0.3
CCOCCOCCO [Ethoxydiglycol],Score (methylene blue),[5],0.5 ± 0.3
[Cl-].[Na+] [NaCl],Score (methylene blue),"guinea pig, in vivo",1.8 ± 0.2
O=C[C@H](O)[C@@H](O)[C@H](O)[C@H](O)CO [D-Glucose],Effect on pathway closure (in words),[6],most effective agents
same,Score (methylene blue),[11],1.5 ± 0.0
same,Score (methylene blue),[7],1.8 ± 0.6
same,Score (methylene blue),[1],3.5 ± 0.5
same,Score (methylene blue),[5],4.0 ± 0.3
CCCCCCCCCCCCCCCC[n+]1ccccc1 [Cetyl pyridinium chloride],Score (methylene blue),"guinea pig, in vivo",0 ± 0
Cl.N [Ammonium chloride],Score (methylene blue),"guinea pig, in vivo",2.6 ± 0.1
